From patent US10875847B2, “Aminopyrazoles as selective janus kinase inhibitors” (Intervet Inc., priority 2016, dated 2020)
pIC50: −log10 of the molar value. Where two headings read alike, the source gives them in different places. Each block holds one molecule with its values, some of them ahead of it.

Legend:
[1] = molecular target: JAK1 (Homo sapiens (Human), UniProt P23458); experiment: Jak biochemical HTRF enzyme assay, JAK1
[2] = system: Interleukin 6 (IL6)—JAK1/JAK2-STAT4 Pathway; experiment: IL6 CellSensor cell pathway engagement assay (SIE-bla ME-180 cells); settings: for IC50: Homo sapiens; for EPO/IL-6: Table 3, comparative examples
From the text: Inhibition of the activity of JAK1 and JAK2 kinases in intact cells was quantified in antagonist mode using CellSensor® transcriptional reporter technology (Life Technologies/ThermoFisher: https://www.thermofisher.com/us/en/home/industrial/pharma-biopharma/drug-discovery-development/target-and-lead-identification-and-validation/pathway-biology/cellular-pathway-analysis/cellsensor-cell-lines.html), in two independent cell lines engineered to detect IL4, IL6 and EPO signaling. In brief, CellSensor® cell lines (see details below for each assay) carrying a stably integrated β-Lactamase reporter gene under control of specific cis-regulatory STAT elements responsive to the pathway being monitored were pre-treated with test compounds serially diluted in DMSO (see preparation and dosing of compounds and agonist cytokines section). […] Incubation with compounds, cytokines and LiveBLAzer™ were carried out at 37° C. in a tissue culture incubator maintained at 90% humidity and 5% CO2.
Interleukin 6 (IL6)—JAK1/JAK2-STAT4 Pathway:
CellSensor™ SIE-bla ME-180 cells carrying a stably integrated β-Lactamase reporter gene under control of the Sis-Inducible Element (SIE).
Each CellSensor® cell line was subsequently plated as per supplier's instructions (30,000 cells in 32 μL/well) and mixed with compound. Following a 60 minute incubation cells were subsequently stimulated by addition of 8 μL of cognate cytokine (EC80 dose of IL6 and EPO) and incubated for an additional 3 hours, before adding LiveBLAzer™-FRET B/G substrate.

[3] = dogs, higher doses; cited from earlier work
[4] = dogs with allergic or atopic dermatitis; cited from earlier work
[5] = system: Erythropoietin (EPO)—JAK2-STAT5 Pathway; experiment: EPO CellSensor cell pathway engagement assay (irf1-bla TF-1 cells); format: cell-based; settings: Homo sapiens, Table 1
Protocol: In brief, CellSensor® cell lines (see details below for each assay) carrying a stably integrated β-Lactamase reporter gene under control of specific cis-regulatory STAT elements responsive to the pathway being monitored were pre-treated with test compounds serially diluted in DMSO (see preparation and dosing of compounds and agonist cytokines section). […] Incubation with compounds, cytokines and LiveBLAzer™ were carried out at 37° C. in a tissue culture incubator maintained at 90% humidity and 5% CO2.
CellSensor irf1-bla TF-1 cells carry a stably integrated β-Lactamase reporter gene under control of the STAT5 Response Elements present in the Interferon Regulatory Factor I (IRF1) gene promoter.

[6] = molecular target: JAK3 (Homo sapiens (Human), UniProt P52333); experiment: Jak biochemical HTRF enzyme assay, JAK3; settings: Table 1
From the text: Jak Biochemical HTRF Enzyme Assay Protocol
The ability of compounds to inhibit the catalytic activity of JAK1, JAK2, JAK3, and TYK2 was quantified using a recombinant purified GST-tagged catalytic domain for each enzyme (InVitrogen/Life Technologies/ThermoFisher, catalogue #s: JAK1, #M4290; […]) in an HTRF format biochemical assay. […] Subsequent reagent additions employed an Agilent Bravo automated liquid handler. […] After normalization to untreated controls, the percent inhibition of the HTRF signal at each compound concentration was calculated. The plot of percent inhibition versus the log value of compound concentration was done as described above for cell assays to calculate IC50 values.

[7] = system: cIL-31 induced pruritus; experiment: IL-31 induced itching model; format: in vivo, Beagle dogs
[8] = IL-31 induced itching model; format: in vivo, Beagle dogs; settings: dog, in vivo, 1 mg/kg body weight; Beagle dogs, dosing before cIL-31 challenge; read-out: approximate Tmax
[9] = 6-week pilot target animal safety study; settings: for NOAEL at 6 weeks: dog, in vivo, po
Protocol: The drug was administered orally, as a compressed tablet, twice per day for 6 weeks to dogs at 1, 3, and 5 times the maximum exposure dose of 0.5 mg/kg, or once per day for 6 weeks to dogs at 5 times the maximum exposure dose of 1 mg/kg.

[10] = Dog pharmacokinetics after IV administration; settings: in vivo, 0.25 mg/kg I.V.
Protocol: Examples of the instant invention were evaluated in JAK1, JAK2, and JAK3 in vitro binding assays, and IL-6 and EPO cell pathway engagement assays, as described above. Table 1 tabulates the IC50 values of the instant invention in the JAK1, JAK2, and JAK3 in the in vitro binding assays, and the IL-6 and EPO cell pathway engagement assays, as well as the ratio of the JAK2/JAK1 IC50s, JAK3/JAK1 IC50s, and the EPO/IL-6 IC50s. Table 2 tabulates the pharmacokinetic parameters of the instant invention in the dog after IV administration.

[11] = ME-180, read-out: IL-6 IC50 (nM)
[12] = 0.5 mg/kg body weight, second study
[13] = dogs, oral, 6 weeks, up to 5 times maximum exposure dose

JAK1, sequence (P23458 875-1153): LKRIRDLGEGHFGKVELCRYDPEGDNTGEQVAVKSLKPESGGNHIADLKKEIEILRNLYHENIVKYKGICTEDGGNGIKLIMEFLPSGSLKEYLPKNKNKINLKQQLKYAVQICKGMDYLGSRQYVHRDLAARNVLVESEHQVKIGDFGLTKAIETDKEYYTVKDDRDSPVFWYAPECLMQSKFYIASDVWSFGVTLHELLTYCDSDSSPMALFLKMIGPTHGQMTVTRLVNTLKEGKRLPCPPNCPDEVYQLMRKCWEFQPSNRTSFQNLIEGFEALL
JAK3, sequence (P52333 822-1111): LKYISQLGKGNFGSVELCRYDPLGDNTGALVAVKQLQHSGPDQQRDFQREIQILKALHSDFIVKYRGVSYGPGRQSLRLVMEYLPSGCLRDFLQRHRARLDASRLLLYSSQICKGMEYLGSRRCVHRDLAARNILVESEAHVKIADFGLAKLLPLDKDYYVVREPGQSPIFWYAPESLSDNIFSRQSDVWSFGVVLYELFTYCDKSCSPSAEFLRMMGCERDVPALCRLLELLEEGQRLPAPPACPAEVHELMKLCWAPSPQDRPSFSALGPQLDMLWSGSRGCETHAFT

Compound: CNS(=O)(=O)C[C@H]1CC[C@H](N(C)c2ncnc3[nH]ccc23)CC1 [Oclacitinib]
- pIC50 ([1]; Table 3, comparative examples): 8.47
- JAK2/1 ([1]; Table 3, comparative examples): 2.0x
- IC50 ([2]; ME-180, read-out: IL-6 IP (nM)): 230 nM
- EPO/IL-6 [2]: 2.4x
- effect on hematocrit, hemoglobin and reticulocyte counts [3]: reduction
- effect on pruritus and lesions [4]: rapid amelioration of pruritus and reduces lesions

- pIC50 ([1]; Table 3, comparative examples): 9.52
- JAK2/1 ([1]; Table 3, comparative examples): 10x
- IC50 ([2]; ME-180, read-out: IL-6 IP (nM)): 97 nM
Compound: N#CCC1(n2cc(-c3ncnc4[nH]ccc34)cn2)CN(C2CCN(C(=O)c3ccnc(C(F)(F)F)c3F)CC2)C1 [INCB39110]
- EPO/IL-6 [2]: 5x

- pIC50 ([1]; Table 1): 7.75
- pIC50 [5]: 5.02
- IC50 [2, 11]: 2440 nM
- pIC50 [6]: < 5.90
Compound: COc1cc(Nc2nn([C@@H]3COCC[C@H]3C#N)cc2C(N)=O)cc(F)n1 [Enantiomer of 1]

Compound: N#CC[C@H](C1CCCC1)n1cc(-c2ncnc3[nH]ccc23)cn1 [JAKAFI]
- JAK2/1 [1]: 0.7x
- IC50 ([2]; ME-180, read-out: IL-6 IP (nM)): 40 nM
- EPO/IL-6 [2]: 0.2x

Compound: CS(=O)(=O)c1ccc(Nc2nn([C@H]3CCCC[C@@H]3C#N)c3cc[nH]c(=O)c23)cc1 [B, (1S,2S)-2-(3-{[4-(methylsulfonyl)phenyl]amino}-4-oxo-4,5-dihydro-1H-pyrazolo[4,3-c]pyridin-1-yl)cyclohexanecarbonitrile]
- potency in IL6 CellSensor assay relative to EPO CellSensor assay ([2]; IL6 versus EPO assay): within two-three fold

- pIC50 ([1]; Table 3, comparative examples): 8.78
Compound: CN(C)[C@H]1CC[C@H](n2cc(C(N)=O)c(Nc3ccc(Cl)cc3)n2)[C@@H](C#N)C1 (single isomer, unassigned) [Reference Compound A, 3-[(4-chlorophenyl)amino]-1-[(1S,2S,4S or 1R,2R,4R)-2-cyano-4-(dimethylamino)cyclohexyl]-1H-pyrazole-4-carboxamide]

Compound: COc1cc(Nc2nn([C@H]3COCC[C@@H]3C#N)cc2C(N)=O)cc(F)n1 (single isomer, unassigned) [Compound 1, 1-((3R,4S) or (3S,4R)-4-cyanotetrahydro-2H-pyran-3-yl)-3-((2-fluoro-6-methoxypyridin-4-yl)amino)-1H-pyrazole-4-carboxamide]
- pIC50 [1]: 9.37
- suppression of cIL-31 induced pruritus ([7]; 0.05 mg/kg body weight (sentence prints 0.5), second study): not
- suppression of cIL-31 induced pruritus ([7]; 0.1 mg/kg body weight, second study): not
- magnitude of effect compared with Apoquel [7, 12]: similar
- suppression of cIL-31 induced pruritus [7, 12]: significantly suppressed
- suppression of cIL-31 induced pruritus ([7]; 1 mg/kg body weight, dosed 2 h prior to cIL-31 challenge, first study): significantly suppressed
- magnitude of pruritus suppression compared with Apoquel ([7]; 1 mg/kg body weight, first study): similar
- Tmax [8]: ~2 h
- NOAEL at 6 weeks [9]: 2.5 mg/kg
- NOAEL at 6 weeks ([9]; 5 mg/kg once per day): 5 mg/kg/day
- test article related effects in clinical observations, fecal observations, body weight, food consumption, physical examination, blood pressure, ophthalmology, cardiology [9, 13]: No test article related effects were observed
- test article related effects in postmortem evaluations (organ weights, macroscopic and microscopic findings) [9, 13]: No test article related effects were observed
- pIC50 [5]: 6.34
- AUC [10]: 1.29 µM·h
- clearance [10]: 9.42 mL/min/kg
- half-life [10]: 4.38 h
- Vd ([10]; read-out: Vdss): 1.95 L/kg
- IC50 [2, 11]: 41.8 nM
- pIC50 [6]: 5.95
